Reference: patent publication US7998739B2, “Methods of activating NKT cells” (The Scipps Research Institute, priority 2004, dated 2011)
Entries after “also recorded” stand apart in the source; their conditions may differ.

Assays:
Vα14 DN32.D3 hybridoma = Vα14 DN32.D3 hybridoma stimulation by spleen cells pulsed with αGalCer variants; assay type: cell-based, mouse
Excerpt: FIG. 2B depicts Vα14 DN32.D3 hybridoma stimulation responses to spleen cells from Hexb^−/− (o) and Hexb^−/− littermates (●), αGalAl-(▪) and CD1-TD knock-in (▴) mice. Spleen cells were pulsed with αGalCer variants as indicated prior to hybridoma stimulation. The data are representative of 2 separate experiments.
(§1) CD1d-restricted T cell responses. Antigen presenting cells were mouse spleen cells cultured at 5×10^5 cells/well, mouse bone marrow-derived dendritic cells generated in the presence of GMC-SF and IL4, activated overnight with 10 ng/ml TNF-α and cultured at 5×10^4 cells/well, and human PBMC or GM-CSF/IL-4 cultured PBMC-derived dendritic cells cultured at 2.5×10^5 cells/well. NKT hybridomas were cultured at 5×10^4 cells/well and the human NKT line was cultured at 2.5×10^5 cells/well. Cytokines released in the culture supernatant were measured by standard ELISA for human IL-4 and IFN-γ (Pharmingen-Becton Dickinson, CA), and the indicator CTLL IL2 bioassay for mouse hybridomas. NKT hybridomas DN32.D3 (Vα14^+), TCBII (Vα14^−), TBA7 (Vα14^−) and the rat basophil leukemia RBL.CD1d transfectant line were used as described in Park, S-H et al., J. Immunol. 160 3128-34 (1998), incorporated herein by reference in its entirety. The human polyclonal Vα24Vβ11 NKT line was derived by repeated αGalCer stimulation of healthy human PBL in vitro and maintained by PHA and IL2 restimulation, and two different subclones, CD4 and DN, were used in experiments. Griffonia Simplicifolia isolectin B4 (IB4) was from Vector Laboratories, and anti-human CD1d mAb 51 was obtained from Dr. S. Porcelli. For stimulation with synthetic glycolipids, APCs were pulsed for 6 hours with various concentrations of lipids (from stock solution in DMSO), washed and incubated with NKT cell hybridoma or cell lines for 18-24 hours. […]

human Vα24 NKT cells = assay: Expansion of hVα24 NKT cells in 4-day cultures of fresh PBMC (anti-Vα24 / CD1d-αGalCer tetramer staining); assay type: cell-based; conditions: 100 ng/ml
Experimental: FIG. 3B depicts frequency of hVα24 NKT PBL, doubly-stained by anti-Vα24 and CD1d-αGalCer tetramers, in PBMC cultured for 4 days in the presence of 100 ng/ml αGalCer, iGb3, or medium alone, as indicated.
Lymphocyte preparation and flow cytometry. Lymphocyte preparations, CD1d-αGalCer tetramers, and flow cytometry staining were done according to standard protocols, e.g., those described in Zhou D et al., Science 303, 523-27 (2004), incorporated herein by reference in its entirety.
Chemically synthesized globotrihexosylceramide (Gb3, Gal α1,4 Gal β1,4 Glc β1,1 Cer) and isoglobotrihexosylceramide (iGb3, Gal α1,3 Gal β1,4 Glc β1,1 Cer) were tested for their ability to stimulate NKT cells in the presence of antigen-presenting cells.

hVα24 NKT line = assay: Inhibition of the response of the hVα24 NKT line to PBMC-derived dendritic cells (GMCSF release, ELISA); assay type: cell-based, human; conditions: PBMC-derived dendritic cells plus exogenous ligand
Experimental: CD1d-restricted T cell responses. Antigen presenting cells were mouse spleen cells cultured at 5×10^5 cells/well, mouse bone marrow-derived dendritic cells generated in the presence of GMC-SF and IL4, activated overnight with 10 ng/ml TNF-α and cultured at 5×10^4 cells/well, and human PBMC or GM-CSF/IL-4 cultured PBMC-derived dendritic cells cultured at 2.5×10^5 cells/well. NKT hybridomas were cultured at 5×10^4 cells/well and the human NKT line was cultured at 2.5×10^5 cells/well. […] NKT hybridomas DN32.D3 (Vα14^+), TCBII (Vα14^−), TBA7 (Vα14^−) and the rat basophil leukemia RBL.CD1d transfectant line were used as described in Park, S-H et al., J. Immunol. 160 3128-34 (1998), incorporated herein by reference in its entirety. The human polyclonal Vα24Vβ11 NKT line was derived by repeated αGalCer stimulation of healthy human PBL in vitro and maintained by PHA and IL2 restimulation, and two different subclones, CD4 and DN, were used in experiments. Griffonia Simplicifolia isolectin B4 (IB4) was from Vector Laboratories, and anti-human CD1d mAb 51 was obtained from Dr. S. Porcelli. For stimulation with synthetic glycolipids, APCs were pulsed for 6 hours with various concentrations of lipids (from stock solution in DMSO), washed and incubated with NKT cell hybridoma or cell lines for 18-24 hours.

[1] = test system: mouse Vα14 hybridoma DN32.D3; assay: Stimulation of mouse Vα14 NKT hybridomas by glycolipids with bone marrow-derived dendritic cells (CTLL IL2 bioassay); assay type: cell-based; conditions: for presentation to DN32.D3 by Hexb−/− cells: bone marrow-derived DC from Hexb−/− mice; for stimulation of mouse Vα14 NKT cells: in the presence of antigen-presenting cells
Experimental: FIG. 4A depicts stimulation of mouse Vα14 hybridoma DN32.D3 by iGb3 and iGb4 with bone marrow-derived DC as CD1d-expressing antigen-presenting cells from Hexb^−/−, Hexb^−/− and CD1-TD mice, as indicated.
(§2) CD1d-restricted T cell responses. Antigen presenting cells were mouse spleen cells cultured at 5×10^5 cells/well, mouse bone marrow-derived dendritic cells generated in the presence of GMC-SF and IL4, activated overnight with 10 ng/ml TNF-α and cultured at 5×10^4 cells/well, and human PBMC or GM-CSF/IL-4 cultured PBMC-derived dendritic cells cultured at 2.5×10^5 cells/well. NKT hybridomas were cultured at 5×10^4 cells/well and the human NKT line was cultured at 2.5×10^5 cells/well. Cytokines released in the culture supernatant were measured by standard ELISA for human IL-4 and IFN-γ (Pharmingen-Becton Dickinson, CA), and the indicator CTLL IL2 bioassay for mouse hybridomas. NKT hybridomas DN32.D3 (Vα14^+), TCBII (Vα14^−), TBA7 (Vα14^−) and the rat basophil leukemia RBL.CD1d transfectant line were used as described in Park, S-H et al., J. Immunol. 160 3128-34 (1998), incorporated herein by reference in its entirety. The human polyclonal Vα24Vβ11 NKT line was derived by repeated αGalCer stimulation of healthy human PBL in vitro and maintained by PHA and IL2 restimulation, and two different subclones, CD4 and DN, were used in experiments. Griffonia Simplicifolia isolectin B4 (IB4) was from Vector Laboratories, and anti-human CD1d mAb 51 was obtained from Dr. S. Porcelli. For stimulation with synthetic glycolipids, APCs were pulsed for 6 hours with various concentrations of lipids (from stock solution in DMSO), washed and incubated with NKT cell hybridoma or cell lines for 18-24 hours.

[2] = molecular target: T1, mCD1d-GT (mouse CD1d preloaded with GT1b) (Mus musculus, UniProt P11609); assay: CD1d lipid loading in the presence of saposin B, visualized by isoelectrofocusing; assay type: binding; conditions: cell-free; for replacement of GT1b preloaded onto CD1d: 2 μM mCD1d-GT, 25 μM isogloboside, with or without 5 μM saposin B
T1 construct: made in house; host or cells: fly expression system
T1 sequence (P11609 19-297 limits assumed): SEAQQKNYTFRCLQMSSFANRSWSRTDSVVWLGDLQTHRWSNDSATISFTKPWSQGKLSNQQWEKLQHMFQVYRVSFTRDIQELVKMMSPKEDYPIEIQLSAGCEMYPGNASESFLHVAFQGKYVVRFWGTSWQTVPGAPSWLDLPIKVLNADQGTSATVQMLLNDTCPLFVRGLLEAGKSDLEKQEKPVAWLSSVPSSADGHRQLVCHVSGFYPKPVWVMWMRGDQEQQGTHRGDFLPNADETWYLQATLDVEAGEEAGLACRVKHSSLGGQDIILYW
T1 sequence (P01887 21-119 partner): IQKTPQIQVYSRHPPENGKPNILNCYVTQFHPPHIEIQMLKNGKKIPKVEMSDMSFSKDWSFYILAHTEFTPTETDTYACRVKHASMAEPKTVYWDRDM
Excerpt: (§3) FIG. 4C left panel depicts in vitro loading of iGb3 and iGb4 onto recombinant CD1d in the presence of saposin B, visualized by isoelectrofocusing.
(§4) CD1d lipid loading and cell-free presentation assay. Purified complexes of CD1 d-GT were made and exchange of lipid in these complexes was quantified from isoelectric focusing gels as previously described by Cantu C III, et al., J. Immunol. 170, 4673-82 (2003), incorporated herein by reference in its entirety. Saposin-mediated loading of lipid was performed with recombinant human saposin B as described in Zhou D et al., Science 303, 523-27 (2004), incorporated herein by reference in its entirety, and with mouse saposin B. Recombinant mouse saposin B was expressed in a fly expression system and purified in the same manner used for production of mouse CD1d, described in Benlagha K, et al., J. Exp. Med 191, 1895-1903 (2000), incorporated herein by reference in its entirety. […] Stimulation of the NKT cell hybridoma DN32.D3 was measured. Briefly, mouse CD1d protein was coated for 24 h at 1 μg/well in phosphate-buffered saline (PBS) on 96-well plates. Plates were washed three times with PBS and then incubated for another 24 h with a constant lipid concentration of 6 μg/ml and various concentrations of mouse saposin B. Plates were washed three times with PBS; then 2×10^4 hybridoma cells were added. Supernatants were collected after 24 h to measure IL-2 release.

[3] = test system: NKT cell hybridoma DN32.D3; assay: Cell-free presentation to DN32.D3 by plate-bound CD1d in the presence of saposin B (IL-2 release); assay type: cell-based, mouse; conditions: lipid 6 μg/ml
Excerpt: as §3
as §4, with “Supernatants were collected after 24 h to measure IL-2 release.” left out

human Vα24 NKT line = assay: Cytokine secretion by human Vα24 NKT line stimulated with glycolipid-pulsed antigen presenting cells (ELISA); assay type: cell-based; conditions: for stimulation of human Vα24 NKT cells: in the presence of antigen-presenting cells; for Th1 (IFNγ) cytokine secretion by polyclonal human NKT line / Th2 (IL4) cytokine secretion by polyclonal human NKT line: 100 ng/ml in FIG. 3C right panel
Experimental: FIG. 3C left panel depicts IFN-γ production by a human Vα24 NKT line stimulated with a range of concentrations of iGb3 and αGalCer in the presence of irradiated PBMC as CD1d-expressing antigen presenting cells. The right panel depicts IFN-γ vs. IL-4 production by the human Vα24 NKT line in response to irradiated PBMC and 100 ng/ml of iGb3 of synthetic, purified and enzymatic origin, vs. 100 ng/ml of αGalCer, Gb3 or LacCer, as indicated.
as §2

non-Vα14 hybridomas = assay: Stimulation of non-Vα14 hybridomas by glycolipid presented by bone marrow-derived dendritic cells; assay type: cell-based, mouse; conditions: not shown
Experimental: as §1, with “Porcelli.” for “Porcelli. For stimulation with synthetic glycolipids, APCs were pulsed for 6 hours with various concentrations of lipids (from stock solution in DMSO), washed and incubated with NKT cell hybridoma or cell lines for 18-24 hours.”

[4] = presented by irradiated PBMC, listed as Synthetic iGb3
[5] = presented by irradiated PBMC, listed as iGb3 produced in vitro by action of iGb3 synthase
[6] = presented by irradiated PBMC, listed as natural iGb3 purified from cat intestine

| Molecule | presentation to DN32.D3 by α-Galactosidase A (αGalA)−/− cells (Vα14 DN32.D3 hybridoma) | stimulation and expansion of human NKT cells (frequency of hVα24 NKT PBL) (human Vα24 NKT cells) | presentation to DN32.D3 by Hexb−/− cells [1] | stimulation of mouse Vα14 NKT cells [1] | loading onto mCD1d-GT by mouse versus human saposin B [2] | replacement of GT1b preloaded onto CD1d [2] | direct stimulation of Vα14 NKT cells by CD1d/lipid complexes [3] | stimulation of human Vα24 NKT cells (human Vα24 NKT line) | other results |
| --- | --- | --- | --- | --- | --- | --- | --- | --- | --- |
| GalNAc β1,4 Gal αCer |  |  |  |  |  |  |  |  | presentation to DN32.D3 by Hexb−/− cells (Vα14 DN32.D3 hybridoma): selective defect |
| Gal α1,2 Gal αCer | selective defect |  |  |  |  |  |  |  |  |
| CCCCCCCCCCCCCCCCCCCCCCCCCC(=O)N[C@@H](CO[C@H]1O[C@H](CO)[C@H](O)[C@H](O)[C@H]1O)[C@H](O)[C@H](O)CCCCCCCCCCCCCC [αGalCer, α-galactosylceramide, reference compound] |  | selectively stimulated and expanded |  |  |  |  |  |  | GMCSF release in the supernatant, control without lectin (hVα24 NKT line): 939 pg/mL |
| CCCCCCCCCCCCC/C=C/[C@@H](O)[C@H](COC1OC(CO)C(OC2OC(CO)C(O)C(OC3OC(CO)C(O)C(OC4OC(CO)C(O)C(O)C4NC(C)=O)C3O)C2O)C(O)C1O)NC(=O)CCCCCCCCCCCCCCCCCCCCCCCCC (stereo partly shown) [iGb4] |  |  | failed to present | stimulatory | equally loaded | partial replacement; also recorded: required saposin B | very weak response | stimulatory |  |
| Gal α1,4 Gal αCer | selective defect |  |  |  |  |  |  |  |  |
| CCCCCCCCCCCCC/C=C/[C@@H](O)[C@H](CO[C@@H]1O[C@H](CO)[C@@H](O[C@@H]2O[C@H](CO)[C@H](O)[C@H](O[C@H]3O[C@H](CO)[C@H](O)[C@H](O)[C@H]3O)[C@H]2O)[C@H](O)[C@H]1O)NC(=O)CCCCCCCCCCCCCCCCCCCCCCCCC [iGb3, isoglobotrihexosylceramide] |  | selectively stimulated and expanded | presented | potent stimulator | equally loaded | partial replacement; also recorded: required saposin B | directly stimulated | potent stimulator | other individual mVα14 hybridomas stimulated ([1]; bone marrow-derived dendritic cells, hybridomas responding/tested, not shown): 5/5; stimulation of mVα14 NKT cell hybridoma DN32.D3 ([1]; presented by CD1d-expressing bone marrow-derived dendritic cells): stimulated; Th1 (IFNγ) cytokine secretion by polyclonal human NKT line (human Vα24 NKT line; [4]): stimulated potent; Th2 (IL4) cytokine secretion by polyclonal human NKT line (human Vα24 NKT line; [4]): stimulated potent; Th1 (IFNγ) cytokine secretion by polyclonal human NKT line (human Vα24 NKT line; [5]): levels comparable to αGalCer; Th2 (IL4) cytokine secretion by polyclonal human NKT line (human Vα24 NKT line; [5]): levels comparable to αGalCer; Th1 (IFNγ) cytokine secretion by polyclonal human NKT line (human Vα24 NKT line; [6]): levels comparable to αGalCer; Th2 (IL4) cytokine secretion by polyclonal human NKT line (human Vα24 NKT line; [6]): levels comparable to αGalCer; cloned CD4 and DN human NKT lines showing cytokine secretion (human Vα24 NKT line; presented by irradiated PBMC, lines responding/tested, not shown): 2/2; stimulation of non-Vα14 hybridomas (non-Vα14 hybridomas): failed to stimulate 3/3 |
